Columns and labels:
[1] = test system: sephadex-induced acute lung inflammation; conditions: sephadex-induced acute lung inflammation model; cited from earlier work
smoke exposed mice = assay: Acute cigarette smoke exposure, i.t. uridine, BAL fluid analysis; format: in vivo, Male C57BL/6 mice
Method: Male C57BL/6 mice were exposed to whole smoke of five cigarettes (commercial Virginia filter cigarettes: 12 mg of tar and 0.9 mg of nicotine) or room air for 20 min on three consecutive days in especially designed macrolon cages (Tecniplast, Buguggiate, Italy), as previously described (Cavarra E et al., Human SLPI inactivation after cigarette smoke exposure in a new in vivo model of pulmonary oxidative stress, Am J Physiol Lung Cell Mol Physiol. 2001 August; 281(2):L412-7, Cicko S et al., Purinergic receptor inhibition prevents the development of smoke-induced lung injury and emphysema, J Immunol. 2010 Jul. 1; 185(1):688-97). The smoke was produced by the burning of a cigarette and was introduced into the chamber with the airflow generated by a mechanical ventilator (7025 Rodent Ventilator, Ugo Basile, Biological Research Instruments, Comerio, Italy), at a rate of 250 ml/min. A second mechanical ventilator was used to provide room air for dilution (1:8) of the smoke-stream.
In some experiments, intratracheal treatment (i.t.) was performed prior to each smoke exposure: animals were anaesthetized by intraperitoneal injection of Ketamin/Xylazin and received an i.t. injection of uridine in a total volume of 80 μl (1 mM or 10 mM) or PBS which was used as vehicle. One hour after the last smoke challenge, mice were sacrificed and bronchoalveolar lavage (BAL) was performed.
BAL fluid was collected by cannulating the trachea under deep pentobarbital anesthesia and washing the lung three times with 1 ml PBS containing 0.1 mM EDTA, as previously described (Idzko M et al., Extracellular ATP triggers and maintains asthmatic airway inflammation by activating dendritic cells, Nat Med. 2007 Aug.; 13(8):913-9, Cicko S et al., Purinergic receptor inhibition prevents the development of smoke-induced lung injury and emphysema, J Immunol. 2010 Jul. 1; 185(1):688-97). Total cell numbers were counted and differential cell counts were performed on cytospin preparations after staining with Diff-Quick (Medion Diagnostics, Dudingen, Switzerland). Differential cell counts were made on >200 cells using standard morphological criteria and FACS-analysis.
After counting and washing, BAL cells were stained for 30 min with anti-MHC class II (macrophages/DC), anti-7/4 (Caltag) FITC (neutrophiles; Abd-Serotec, Düsseldorf, Germany), anti-CD3 and anti-CD19 cy-chrome (lymphocytes), and anti-CD 11c APC macrophages/DCs (eBioscience, San Diego, Calif.) in PBS containing 0.5% BSA and 0.01% sodium azide. Differential cell counts were analyzed by flow cytometry, as described previously (Idzko M et al., Extracellular ATP triggers and maintains asthmatic airway inflammation by activating dendritic cells, Nat Med. 2007 Aug.; 13(8):913-9 and Cicko S et al., Purinergic receptor inhibition prevents the development of smoke-induced lung injury and emphysema, J Immunol. 2010 Jul. 1; 185(1):688-97).
To measure ATP concentrations in BALF in mice, fresh BALF supernatants were used, according to manufacturer's instructions (ATPlite Assay, PerkinElmer, Wellesley Mass.), but without the cell lysis step to avoid any contaminating intracellular ATP, as described previously (Idzko M et al., Extracellular ATP triggers and maintains asthmatic airway inflammation by activating dendritic cells, Nat Med. 2007 Aug.; 13(8):913-9 Cicko S et al., Purinergic receptor inhibition prevents the development of smoke-induced lung injury and emphysema, J Immunol. 2010 Jul. 1; 185(1):688-97)).
(§1) Cytokine concentrations in BALF were measured using commercially available ELISA kits (R&D Systems, Minneapolis, Minn.) according to the manufacturer's recommendations.
(§2) Statistical significance of differences between samples was calculated using ANOVA, followed by Bonferroni comparison test. Difference were considered significant if p<0.05.

[2] = test system: asthmatic airway inflammation; conditions: OVA-alum model and HDM model in mice, local administration; cited from earlier work
[3] = test system: BLM-induced pulmonary fibrosis; assay: Mouse model of bleomycin (BLM) induced pulmonary fibrosis; format: in vivo, male C57/B16 mice
Method: The induction of BLM induced pulmonary fibrosis was performed as previously described (Gasse P, Mary C, Guenon I, Noulin N, Charron S, Schnyder-Candrian S, Schnyder B, Akira S, Quesniaux V F, Lagente V, et al. II-1r1/myd88 signaling and the inflammasome are essential in pulmonary inflammation and fibrosis in mice. J Clin Invest 2007; 117(12):3786-3799). Then, male C57/B16 animals were treated with the uridine p.o. (200 μl 10 mM) or vehicle 14 days after BLM-instillation for 3 days a week. At day 30 animals were examined for the typical features of BLM-induced lung injury. Therefore BALF was collected and differential cell count was analyzed as described above.
as §1
The amount of lung collagen was measured in the lung tissue using the Sircol-assay according to the manufacturer's recommendations (Biocolor, Life-Science, UK).
as §2

[4] = test system: murine model of chronic smoke exposure; assay: Chronic exposure to cigarette smoke (pulmonary emphysema), lung morphometry; format: in vivo, male C57BL/6 mice; conditions: uridine 0.6 mg/kg oral gavage 45 min prior to smoke exposure vs non-uridine treated mice (FIG. 2)
From the text: The methodology for chronic smoke exposure has been previously described (Cavarra E et al., Human SLPI inactivation after cigarette smoke exposure in a new in vivo model of pulmonary oxidative stress, Am J Physiol Lung Cell Mol Physiol. 2001 August; 281(2):L412-7 Cicko S et al., Purinergic receptor inhibition prevents the development of smoke-induced lung injury and emphysema, J Immunol. 2010 Jul. 1; 185(1):688-97)). Briefly, male C57BL/6 mice were exposed to either the smoke of 3 cigarettes per day (commercial Virginia filter cigarettes: 12 mg of tar and 0.9 mg of nicotine), 5 days per week or to room air (controls) for 4 or 7 months, respectively.
When indicated, animals received an oral treatment by gavage with Uridine (0.6 mg/kg) 45 min prior to smoke exposure.
At the end of the respective time period, animals were sacrificed; BAL was performed followed by lung resection. […] Lung volume was measured by water displacement. […]
This Lm value was used to calculate the ISA (which represent the gas exchange surface), necessary for evaluating the degree of emphysema, from the equation 4V/Lm, where V is the postfixation lung volume. For the determination of the Lm for each pair of lungs, 40 histological fields were evaluated both vertically and horizontally.
Statistical significance of differences between samples was calculated using ANOVA, followed by Bonferroni comparison test. […]

[5] = test system: mitochondrial toxicity caused by highly active antiretroviral therapy (HAART); conditions: cited from earlier work
[6] = BALF, uridine i.t. 1 mM or 10 mM
[7] = BALF, uridine p.o. 200 μl 10 mM, day 30
[8] = uridine p.o. 200 μl 10 mM, day 30

In the case of `O=c1[nH]c(=S)ccn1[C@@H]1O[C@H](CO)[C@@H](O)[C@H]1O` [4-thiouridine], the anti-inflammatory effects [1] is given as “anti-inflammatory effects similar to those of uridine”.

With `O=c1ccn([C@@H]2O[C@H](CO)[C@@H](O)[C@H]2O)c(=O)[nH]1` [uridine] the “level of IFN-γ” value (smoke exposed mice; [6]) was “dose dependently reduced”, the “level of IL-1β” value (smoke exposed mice; [6]) was “dose dependently reduced” and the “level of IL-6” value (smoke exposed mice; [6]) was “dose dependently reduced”. The “level of KC” value (smoke exposed mice; [6]) was “dose dependently reduced”, the “level of MIP-2” value (smoke exposed mice; [6]) was “dose dependently reduced” and the number of macrophages (smoke exposed mice; [6]) was “dose dependently reduced”. For the same compound, the number of neutrophils (smoke exposed mice; [6]) was “dose dependently reduced”, the “amount of extracellular ATP in BALF” value (smoke exposed mice; uridine i.t. 80 μl 1 mM or 10 mM vs non uridine treated mice (FIG. 1b)) was “significantly be reduced in a dose dependent manner” and the asthmatic airway inflammation [2] was “suppress”. For the same compound, the IL-1 beta [3, 7] was “down-regulation”, the IL-6 [3, 7] was “down-regulation” and the KC [3, 7] was “down-regulation”. The TNFalpha [3, 7] was “down-regulation”, the BLM-induced pulmonary fibrosis ([3]; uridine p.o 3×/week from day 14, day 30 (FIG. 3)) was “decreases” and the “amount of collagen in the lung” value ([3]; uridine p.o. 200 μl 10 mM 3 days a week from day 14, day 30) was “significantly reduce”. The TIMP-1 ([3]; uridine p.o. 200 μl 10 mM, after bleomycin instillation (FIG. 3)) was “reduced to normal levels”, the “lymphocytes in BALF” value [3, 8] was “down-regulation” and the “macrophages in BALF” value [3, 8] was “down-regulation”. For the same compound, the “neutrophils in BALF” value [3, 8] was “down-regulation”, the “internal surface area of the lung” value [4] was “higher” and the mean linear intercept [4] was “significantly lower”. For the same compound, the “efficacy in reduction of mitochondrial toxicity” value ([5]; human, HAART) was “efficacious” and the safety ([5]; in vivo) was “safe”.

Reference: patent US9795625B2, “Uridine and uridine analogues for treatment of specific lung diseases, namely COPD and pulmonary fibrosis” (Universitaetsklinikum Freiburg, priority 2011, dated 2017)
